The record followed here is ChEMBL document CHEMBL1201862, “PubChem BioAssay data set” (2004).

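Where inhibition never reached the appropriate level, the endpoint shown equals the highest concentration tested. Otherwise, values were interpolated linearly from a five-concentration, 48-hour dose response in 96-well plates. GI50 = concentration required for 50% inhibition of growth.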 Active and inactive are the calls of the source. No stated cut-off is given here; in the data, active = GI50 up to about 1.1 µM and inactive = higher.

Among the test systems are CAKI-1; DU-145; HCT-15; Hs-578T; MCF7; MDA-MB-231; MOLT-4; NCI/ADR-RES; OVCAR-5; PC-3; SK-MEL-5; SN12C; SR; UACC-257; UACC-62; UO-31; A549; HCC 2998; NCI-H522; HOP-92.
Holding throughout (assay): NCI-60 cell line screen, 48 h

Consider `COCC1OC([P+](c2ccccc2)(c2ccccc2)c2ccccc2)CC(OC)C1OC` (stereo not drawn), for which the GI50 in the experiment on CAKI-1 was > 100 µM (inactive); with DU-145, 32.2 µM (inactive); in the experiment on HCT-15, > 100 µM; with Hs-578T it was 28.2 µM (inactive); in the experiment with MCF7 it was 38 µM (inactive); in the experiment with MDA-MB-231 it was 44.3 µM (inactive). Moreover, the GI50 with MOLT-4 was 58.1 µM (inactive); with NCI/ADR-RES, > 100 µM (inactive); with OVCAR-5, 51.5 µM (inactive); in the experiment with PC-3 it was 30.5 µM (inactive); in the experiment on SK-MEL-5 it was 18.2 µM (inactive); with SN12C, 29.1 µM (inactive). Further, the GI50 with SR is 17.4 µM (inactive); with UACC-257, 21 µM (inactive); in the experiment on UACC-62 it was 49.5 µM (inactive); in the experiment on UO-31, > 100 µM (inactive).
As to `Cc1nc2c(Br)cc(Br)cc2c(=O)n1-c1ccccc1N`, the GI50 is 33.5 µM (inactive) in the experiment on A549; 28.4 µM (inactive) with CAKI-1; 56.6 µM (inactive) in the experiment with DU-145; 35.6 µM (inactive) in the experiment with HCC 2998; 35.8 µM in the experiment with HCT-15; 25.9 µM (inactive) in the experiment on Hs-578T. In addition, the GI50 in the experiment with MCF7 was 38.9 µM (inactive); in the experiment on MDA-MB-231, 47.4 µM (inactive); in the experiment on MOLT-4 it was 21.9 µM (inactive); with NCI/ADR-RES it was 45.9 µM (inactive); in the experiment on OVCAR-5 it was 28.8 µM (inactive); in the experiment on PC-3, 26.8 µM (inactive). Further, the GI50 is 18.3 µM (inactive) in the experiment with SK-MEL-5; 29.9 µM (inactive) in the experiment with SN12C; 37 µM (inactive) in the experiment with SR; 31 µM (inactive) in the experiment with UACC-257; 30.1 µM (inactive) with UACC-62; 20.5 µM (inactive) in the experiment with UO-31.
As to `O=c1[nH]c2[nH]c(-c3ccc(Br)cc3)cc2c2ccccc12`, the GI50 is 61.1 µM (inactive) in the experiment with CAKI-1; > 100 µM (inactive) in the experiment with DU-145; > 100 µM (inactive) in the experiment with HCC 2998; > 100 µM with HCT-15; 15.1 µM (inactive) in the experiment with Hs-578T; > 100 µM (inactive) in the experiment with MCF7. The GI50 is 15 µM (inactive) in the experiment with MDA-MB-231; 12 µM (inactive) with MOLT-4; > 100 µM (inactive) in the experiment on NCI-H522; 50.1 µM (inactive) with NCI/ADR-RES; > 100 µM (inactive) in the experiment with OVCAR-5; > 100 µM (inactive) in the experiment with PC-3. Further, the GI50 was > 100 µM (inactive) in the experiment on SK-MEL-5; 41.4 µM (inactive) in the experiment with SN12C; 11.3 µM (inactive) in the experiment with SR; > 100 µM (inactive) in the experiment with UACC-257; > 100 µM (inactive) with UACC-62; > 100 µM (inactive) in the experiment on UO-31.
With `COc1cc(C2C(Cl)C(=O)N2c2ccc(Br)cc2)cc(I)c1O` (stereo not drawn), the GI50 in the experiment on A549 was 42.4 µM (inactive); in the experiment with CAKI-1, 47.9 µM (inactive); with DU-145, > 100 µM (inactive); in the experiment on HCT-15 it was 23.8 µM; in the experiment with Hs-578T it was 59.6 µM (inactive); in the experiment with MCF7, 87.9 µM (inactive). Moreover, the GI50 is 18.9 µM (inactive) in the experiment with MDA-MB-231; 27.5 µM (inactive) with MOLT-4; 18.7 µM (inactive) in the experiment with NCI-H522; 33.5 µM (inactive) with NCI/ADR-RES; 87.7 µM (inactive) in the experiment with OVCAR-5; > 100 µM (inactive) with PC-3. Further, the GI50 in the experiment with SK-MEL-5 is 43.2 µM (inactive); in the experiment on SN12C, 68.5 µM (inactive); with SR, 29.2 µM (inactive); in the experiment with UACC-257, 57 µM (inactive); in the experiment with UACC-62 it was 25.5 µM (inactive); in the experiment on UO-31, 31.1 µM (inactive).
Regarding `Brc1cccc(C2ON=C(c3ccccc3)N2C23CC4CC(CC(C4)C2)C3)c1` (stereo not drawn), the GI50 was > 10 µM (inactive) in the experiment on A549; > 10 µM (inactive) in the experiment on CAKI-1; > 10 µM (inactive) in the experiment with DU-145; > 10 µM (inactive) with HCC 2998; > 10 µM with HCT-15; 5.42 µM (inactive) with HOP-92. For the same molecule, the GI50 in the experiment with Hs-578T, in the experiment on MCF7, in the experiment on MDA-MB-231, with MOLT-4, with NCI-H522 and in the experiment on NCI/ADR-RES was > 10 µM (inactive) in each case. Besides, the GI50 with OVCAR-5, in the experiment on PC-3, in the experiment with SK-MEL-5, in the experiment on SN12C, with UACC-257 and with UACC-62 was > 10 µM (inactive) each time. Moreover, the GI50 in the experiment with UO-31 is > 10 µM (inactive).
As to `O=C(Nc1ccc(Cl)cc1)c1cc2c(cc1Cl)Sc1nccn1S2(=O)=O`, the GI50 was > 100 µM (inactive) with A549; 40.7 µM (inactive) in the experiment on CAKI-1; > 100 µM (inactive) in the experiment on DU-145; 76.7 µM (inactive) in the experiment with HCC 2998; 35.7 µM in the experiment on HCT-15; 33.8 µM (inactive) in the experiment with Hs-578T. The GI50 in the experiment on MCF7 is 69.3 µM (inactive); in the experiment with MDA-MB-231 it was 43.7 µM (inactive); with MOLT-4, 27.9 µM (inactive); with NCI-H522, 57.1 µM (inactive); with NCI/ADR-RES it was 56.5 µM (inactive); in the experiment with OVCAR-5, > 100 µM (inactive). The GI50 in the experiment with PC-3 is 85.3 µM (inactive); with SK-MEL-5, 44.7 µM (inactive); in the experiment with SN12C it was 49.7 µM (inactive); in the experiment with SR, > 100 µM (inactive).
`Cc1cc(N(C)C)c2ccccc2[n+]1CCCCCCCCCC[n+]1c(C)cc(N(C)C)c2ccccc21.[O-][Cl+3]([O-])([O-])[O-].[O-][Cl+3]([O-])([O-])[O-]`: the GI50 in the experiment with A549 was 0.587 µM (active); with CAKI-1, 7.5 µM (inactive); in the experiment on DU-145, 1.58 µM (inactive); in the experiment with HCC 2998 it was 0.893 µM (active); in the experiment on HCT-15, 3.81 µM; with HOP-92, 1.64 µM (inactive). The GI50 with Hs-578T was 1.52 µM (inactive); with MCF7, 0.434 µM (active); in the experiment on MDA-MB-231, 0.491 µM (active); with MOLT-4, 0.687 µM (active); in the experiment on NCI-H522, 6.1 µM (inactive); with NCI/ADR-RES, 13.7 µM (inactive). The GI50 in the experiment on OVCAR-5 is 3.3 µM (inactive); in the experiment with PC-3 it was 0.589 µM (active); in the experiment with SK-MEL-5 it was 0.165 µM (active); in the experiment on SN12C, 0.251 µM (active); with UACC-257, 0.238 µM (active); in the experiment on UACC-62, 0.989 µM (active). Also, the GI50 in the experiment with UO-31 is 3.38 µM (inactive).
As for `O=C(O)c1c(Br)c(Br)c(Br)c(Br)c1C1c2ccc(O)cc2Oc2cc(O)ccc21`, the GI50 was > 100 µM (inactive) in the experiment on A549; > 100 µM (inactive) in the experiment with CAKI-1; > 100 µM (inactive) in the experiment on DU-145; 68.1 µM (inactive) in the experiment on HCC 2998; > 100 µM in the experiment with HCT-15; > 100 µM (inactive) in the experiment with HOP-92. The GI50 with Hs-578T was > 100 µM (inactive); in the experiment on MCF7 it was > 100 µM (inactive); in the experiment on MDA-MB-231, > 100 µM (inactive); in the experiment on MOLT-4, 3.67 µM (inactive); in the experiment on NCI-H522, > 100 µM (inactive); with NCI/ADR-RES it was > 100 µM (inactive). Moreover, the GI50 in the experiment with OVCAR-5, in the experiment with PC-3, with SK-MEL-5, in the experiment on SN12C, in the experiment with UACC-257 and in the experiment with UACC-62 was > 100 µM (inactive) in each case. For the same molecule, in the experiment on UO-31, the GI50 was 33 µM (inactive).
